Ends that are not written are not given here.

Data set [1] is described as follows: Time-dependent 4NPA hydrolysis rate during fibrillization. It is filed as biochemical. The note with it: 50 μM peptide, 50 mM HEPES pH 7.3, 0.5 mM ZnCl2, 1 mM 4NPA, derivative of A400. As for the experimental part:
For more direct evidence that the amyloid is the catalytically active state, we attempted to measure the catalysis rate during the aggregation of 35 in order to correlate the amyloid formation with an increase in hydrolytic activity. Since the aggregation is too fast to measure a steady-state hydrolysis rate, an instantaneous time-dependent rate of 4NPA hydrolysis was calculated from the derivative of the A400 measurements (Fig 3A). In parallel, an identical sample was monitored at 218 nm for the β-strand-typical ellipticity (Fig 3C). Note that the absorbance of 50 mM HEPES prevented the measurement of a full spectrum (190–260 nm) under the identical aggregation conditions, however when performed with 10 mM HEPES, the spectrum clearly indicates a move towards increasing β-structure upon mixing the peptide with buffer at pH 7.3 (Figure B in S1 File). […]
Fig 3 Parallel kinetics of fibrillization and hydrolysis activity. Kinetics of fibrillization measured by CD (c) matches the appearance of the 4NPA hydrolysis activity (a). a) A stock of 35 at 200 μM in 10 mM HCl was diluted to a final concentration of 50 μM into 50 mM HEPES pH 7.3 with 0.5 mM ZnCl2 and 1 mM 4NPA. After ca. 10 s mixing time, the hydrolysis of 4NPA was recorded every 1 s for 20 min at 400 nm and the first derivative of this signal (the instantaneous rate) is plotted as a function of time. […]

A short description of data set [2]: Plate reader 4NPA hydrolysis kinetics of purified peptide amyloids at pH 7.3. Type of data set: biochemical. The following applies: 4NPA hydrolysis, pH 7.3 HEPES with zinc(II), 20 μM purified peptide. As for the experimental part: The reaction buffer consisted of the same buffer as the fibrillization buffer without ZnCl2 and with 1.33 mM 4NPA prepared from a 100 mM stock in CH3CN. The samples of the amyloid library were mixed 1:3 with the reaction buffer yielding 40 μM peptide and, when present 250 μM zinc(II). The absorbance measurements were performed in a BMG Pherastar platereader with a 400 nm band-pass filter (10 nm bandwidth) in 96-well Nunclon Delta surface plates or 384-well Greiner Bio-One non-bind black μclear plates.
The kinetics assays performed on the purified peptides were prepared similarly except that the peptide concentration was 20 μM in the reaction. Furthermore, the various substrate concentrations and replicate samples were randomly distributed over the plate to minimize systematic errors. Various 4NPA concentrations (i.e. 0.1 mM, 0.2 mM, 0.4 mM, 0.6 mM, 1.0 mM) were added from a 100 times stock so that the final CH3CN concentration was always 1%. The linear part of the hydrolysis activity was fit with an extinction coefficient of ε = 9700 M^-1cm^-1 and corrected for the background reaction rate of buffer alone (v bg = 5.0 × 10^-6 Ms^-1) to obtain the initial reaction rate v 0. The average of the initial reaction rates at each substrate concentration were then fit to the Michaelis-Menten type kinetics to obtain k cat, K M and k cat/K M always calculated per monomer peptide. The background reaction rate was obtained similarly using 5 replicates.

Data set [3] in a line: Circular dichroism (CD), secondary structure of aggregates. Type of data set: physicochemical. The following applies: 50 μM peptide in 10 mM HCl, time-stable spectrum. For orientation: Circular dichroism is widely used to follow secondary structure.
Data set [4] in a line: Solubility of binary alternating Val/Ser peptides (supernatant vs precipitate, quantitated by total hydrolysis). It is filed as physicochemical. The note with it: 200 μM peptide, 50 mM HEPES buffer pH 7.3, fibrillization for 2 days. The source says: A high β-aggregation propensity is essential for a combinatorial peptide library in the form of amyloids. To satisfy this requirement we profited from the well-documented observation that in aqueous environments, binary alternating sequences of hydrophobic-hydrophilic residues are prone to oligomerize into amphipathic β-structures. In these structures, the hydrophobic residues are buried at the interface of two β-sheets, leaving the hydrophilic residues on the surface. In keeping with the theme of a prebiotic fold, we wanted to use the shortest peptides that still guaranteed a high percentage of amyloidogenic peptides in the library. […]
For peptides that contain Tyr the concentration of the peptide was measured by diluting a 3–5 mM DMSO stock of the peptide 20-fold into 10 mM HCl and quickly measuring the UV spectrum to minimize the potential for aggregation (ε276 = 1500 M^-1cm^-1). Peptide 36 was quantitated during purification by C18 reversed phase HPLC using a calculated extinction coefficient of ε214 = 13963 M^-1cm^-1. The quantification of the VS peptides in Table 1 and peptide 34 was performed by total hydrolysis in 6 M HCl at 160°C for 2 h. The hydrolyzed samples were analyzed by C18 reversed-phase and the amount of Val or Ile was calculated by comparing the chromatographic peak areas to amino acid samples of known quantity.

Turning to “Ac-YVHVHVAV-NH2 [Peptide 35, Ac-YVHVHVAV-CONH2]”, the “activity of the monomeric peptide (by extrapolation to t = 0)” value in data set [1] was “not significantly above the background hydrolysis”. The “k cat/K M” value in data set [2] (0.1-1.0 mM 4NPA, 1% CH3CN, A400, Michaelis-Menten fit, per monomer peptide, triplicate (duplicate for 8, 27, 34, 35)) is 7.38 ± 0.63 M⁻¹ s⁻¹. Moreover, in data set [2] (Michaelis-Menten fit), the “K M” value was 630 ± 100 µM. For the same substance, the k cat in data set [2] (Michaelis-Menten fit, per monomer peptide) is recorded as 0.463±0.039 10^-2s^-1. Also, in data set [3], the “CD spectrum in 10 mM HCl” value is “mostly random coil”.

Take VSVSVSV-NH2 [VSVSVSV-CONH2]: the “peptide in solution after centrifugation at 25,000 g” value in data set [4] is “less than 5%”.

Values taken from paper PMC4674085, “Towards Prebiotic Catalytic Amyloids Using High Throughput Screening” (PLoS ONE, 2015).
